From patent US20220211861A1, “DRUG CONJUGATES AND METHODS OF USING SAME” (The Board of Trustees of the Leland Staford Junior …, priority 2019, published 2022)
Where no end group is shown, it is not given here.

Tests used:
U87MG hip xenografts = assay: Therapeutic efficacy study, once weekly for four weeks, tumors implanted with Matrigel; type: in vivo, Nu/Nu mice; settings: once weekly for 4 weeks
Procedure: To further investigate each compound, several changes were made to the experimental design. Because of the KDC's rapid systemic clearance, a significant portion of the injected dose is likely lost and the ˜0.6 mg/kg dose was therefore increased substantially. Because dosages for chemotherapeutics are conventionally determined as mass of chemotherapeutic per patient body surface area, a more clinically relevant comparison of equal mass was selected over an equimolar comparison. Next, a once-per-week dosing regimen was selected to coincide with realistic clinical dosing considerations. Finally, tumors were implanted with Matrigel matrix to increase tumor growth and with only 2.5×10^6 cells per injection to decrease initial tumor necrosis. Mice bearing U87MG hip xenografts were equally distributed into the following treatment groups with intravenous injections given once weekly for 4 weeks: KDC, KFDC, KADC, unconjugated proteins, or a PBS control. Each drug conjugate was also evaluated at a low dose and a high dose.
For tumor cell implantation, female Nu/Nu mice (Charles River Laboratory) were anesthetized with 2.5% isoflurane by inhalation with a flow rate of 1 L/min. A volume of 200 μL of 50/50 PBS/Matrigel (Corning), containing 2.5×10^6 U87MG cells, was injected subcutaneously into the right flank. Tumors were allowed to grow for 7 days until reaching a size of approximately 35 mm^2. For therapeutic efficacy studies, mice were binned into experimental groups to ensure equivalent average tumor sizes and starting body weights across all groups.
Mice bearing U87MG flank xenografts, as described above, were injected intravenously with PBS, KDC, KFDC, KADC, or controls proteins. Treatments were administered once per week for four weeks. Tumors were measured three times per week using digital calipers and animal weights were recorded on each dosing day to monitor for potential weight loss as a measure of compound toxicity. Tumor area was calculated as the longest axis of the tumor multiplied by the perpendicular axis. Euthanasia criteria were defined as a tumor area greater than 150 mm^2 or a loss of 20% body weight.

U87MG cells [1] = assay: Measurement of cellular internalization of AF488-labeled proteins; type: cell-based; settings: AF488-labeled protein, 37° C., 4 h, surface signal quenched
Procedure: The cleavage of the Val-Cit-PAB linker and the subsequent release and mechanism of action of MMAE are dependent upon intracellular delivery. Thus, it was important to validate that each construct internalized efficiently. Internalization was measured by incubating Alexa Fluor 488-conjugated proteins with cells at 37° C. After a 4 h incubation, surface-bound protein was quenched using an anti-AF488 antibody, that binds any exposed fluorophores.
U87MG cells were seeded in 24-well plates (Corning) at a density of 5×10^4 cells per well. After allowing cells to settle for >4 h, media was replaced with fresh media containing 200 nM of Alexa Fluor 488-labeled proteins and supplemented with 1 mM MnCl2. Cells were then incubated at 37° C. for 4 h. Cells were washed with 500 μL of PBS and detached using 20 μL of 0.05% trypsin/EDTA. After neutralizing trypsin and transferring each well into an Eppendorf tube, cells were washed with 800 μL of cold PBSA. Next, cells were pelleted and resuspended on ice in 50 μL of a 1:200 dilution of anti-Alexa Fluor 488 antibody (Invitrogen) to quench surface-bound protein. Cells were washed again with 800 μL of PBSA and the fluorescence of internalized protein was measured by flow cytometry as described above.

U87MG cells [2] = assay: Direct binding of Alexa Fluor 488-labeled proteins to U87MG cells (flow cytometry); settings: direct binding of AF488-labeled protein to U87MG cells, 3 h at 4° C.
Procedure: (§1) The binding affinity of the constructs described in Example 1 were measured using U87MG glioblastoma cells. Drug-free protein affinities were measured directly using Alexa Fluor 488-conjugaed proteins and drug conjugates were measured via a competition binding assay displacing Alexa Fluor 488-labeled K. All constructs tested bound to U87MG cells with low-nanomolar affinity (FIG. 9A-B).
(§2) U87MG cells were detached using Enzyme-Free Cell Dissociation Buffer (Gibco). Next, 4×10^4 cells were incubated with varying concentrations (0.01-200 nM) of Alexa Fluor 488 labeled proteins in Integrin Binding Buffer (IBB; 25 mM Tris pH 7.4, 150 mM NaCl, 2 mM CaCl2), 1 mM MgCl2, 1 mM MnCl2, and 0.1% bovine serum albumin (BSA)) for 3 h at 4° C. to minimize internalization. Cells were pelleted and washed twice with 800 μL of PBSA (phosphate buffered saline containing 0.1% bovine serum albumin) and the fluorescence of remaining surface-bound protein was measured by flow cytometry using a Guava EasyCyte 8HT instrument (EMD Millipore). Resulting data were evaluated using FlowJo software (TreeStar Inc) and equilibrium dissociation constants (Kd) were determined using Prism software (GraphPad). Error bars represent the standard deviation of experiments performed in triplicate.

U87MG cells [3] = assay: Indirect (competition) binding assay displacing Alexa Fluor 488-labeled knottin; settings: competing off 1 nM AF488-2.5F on U87MG cells
Procedure: as §1
as §2, with “1 nM” for “varying concentrations (0.01-200 nM)”, “knottin as a competitor and varying concentrations (0.01-500 nM) of KDC, KFDC, or KADC” for “proteins”, “IBB” for “Integrin Binding Buffer (IBB; 25 mM Tris pH 7.4, 150 mM NaCl, 2 mM CaCl2), 1 mM MgCl2, 1 mM MnCl2, and 0.1% bovine serum albumin (BSA))”

[4] = biological target: integrin receptors on U87MG glioblastoma cells; assay: flow cytometry, direct binding of AF488-labelled protein to U87MG cells, 3 h at 4 C

KFc: EETI 2.5F genetically fused to a human IgG1 Fc domain (GCPRPRGDNPPLTCSQDSDCLAGCVCGPNGFCG; ends and bridges not checked; also: fused to human IgG1 Fc domain (dimerising))
tumor growth with unconjugated protein (U87MG hip xenografts): indistinguishable from PBS control mice | internalization (U87MG cells [1]): from least to greatest, K, KFc, then KAb | Kd (U87MG cells [2]): 2.5 nM | Ki (U87MG cells [3]): 1.2 nM

knottin-Fc fusion (KFc): EETI 2.5F genetically fused to a human IgG1 Fc domain, Alexa Fluor 488-labeled
Kd [4]: 2.5 nM

B1: knottin-Ab fusion (KAb): EETI 2.5F genetically fused to the N-terminus of a full-length human IgG1 antibody against an irrelevant target (anti-FITC or … (peptide, part only; not given: carrier IgG1 antibody chains, part only)
chain, part: GCPRPRGDNPPLTCSQDSDCLAGCVCGPNGFCG
modifications: cysteine pairing not given here; also: genetic fusion to N-terminus of full-length human IgG1 antibody, Alexa Fluor 488 label, site not given here
Kd [4]: 2.3 nM
